Assays:
[1] = target: NaV1.5 (Homo sapiens, UniProt Q14524); assay: Cut-open oocyte recording of NaV1.5; format: cell-based; settings: 10 µM CP1
[2] = target: pseudo wild-type KCNQ1 (with mutations C214A/G219C/C331A) (Homo sapiens, UniProt P51787, C214A/C331A/G219C); assay: Voltage-clamp fluorometry (VCF) of pseudo WT KCNQ1 in Xenopus oocytes; format: cell-based; settings: for G/Gmax Mean: Fig. 3g; for F/Fmax Mean: Fig. 3i
Excerpt: We employed voltage-clamp fluorometry (VCF) to measure the effects of CP1 on voltage-sensor activation. The emission (F) of Alexa 488 C5 maleimide attached to the S3–S4 linker, at residue C219, of the pseudo wild-type KCNQ1 (with mutations C214A/G219C/C331A) reported VSD movements in response to voltage changes, while the ionic current reported pore opening[45] (Fig. 3f, h). Similar to the WT KCNQ1, the G–V relation of the pseudo WT KCNQ1 shifted to negative voltages by −53.3 ± 3.1 mV in the presence of 10 µM CP1 (Fig. 3g). […] However, the F–V relationship shifted only by −17.3 ± 3.6 mV. […] (Supplementary Fig. 3). […] It is also apparent that at extreme negative voltages ≤ −130 mV, where the voltage sensor seemed not activated (F ~ 0, Fig. 3i), a fraction of the channels was constitutively open (G > 0, Fig. 3b, g).
Oocytes were labeled on ice for 45 min with 10 μM Alexa 488 C5 maleimide (Molecular Probes, Eugene, OR) in high K^+ solution (in mM: 98 KCl, 1.8 CaCl2, and 5 HEPES, pH 7.6). Then the cells were washed with ND96 solution and kept on ice until recording. A CA-1B amplifier was used to record whole-oocyte currents in ND96 solution. Fluorescent signals were recorded simultaneously using a Pin20A photodiode (OSI Optoelectronics, CA), filtered using a FITC filter cube (Leica, Germany, for Alexa 488), and then amplified using a patch-clamp amplifier (EPC10, HEKA, Germany).

NaV1.5, sequence (Q14524 whole entry): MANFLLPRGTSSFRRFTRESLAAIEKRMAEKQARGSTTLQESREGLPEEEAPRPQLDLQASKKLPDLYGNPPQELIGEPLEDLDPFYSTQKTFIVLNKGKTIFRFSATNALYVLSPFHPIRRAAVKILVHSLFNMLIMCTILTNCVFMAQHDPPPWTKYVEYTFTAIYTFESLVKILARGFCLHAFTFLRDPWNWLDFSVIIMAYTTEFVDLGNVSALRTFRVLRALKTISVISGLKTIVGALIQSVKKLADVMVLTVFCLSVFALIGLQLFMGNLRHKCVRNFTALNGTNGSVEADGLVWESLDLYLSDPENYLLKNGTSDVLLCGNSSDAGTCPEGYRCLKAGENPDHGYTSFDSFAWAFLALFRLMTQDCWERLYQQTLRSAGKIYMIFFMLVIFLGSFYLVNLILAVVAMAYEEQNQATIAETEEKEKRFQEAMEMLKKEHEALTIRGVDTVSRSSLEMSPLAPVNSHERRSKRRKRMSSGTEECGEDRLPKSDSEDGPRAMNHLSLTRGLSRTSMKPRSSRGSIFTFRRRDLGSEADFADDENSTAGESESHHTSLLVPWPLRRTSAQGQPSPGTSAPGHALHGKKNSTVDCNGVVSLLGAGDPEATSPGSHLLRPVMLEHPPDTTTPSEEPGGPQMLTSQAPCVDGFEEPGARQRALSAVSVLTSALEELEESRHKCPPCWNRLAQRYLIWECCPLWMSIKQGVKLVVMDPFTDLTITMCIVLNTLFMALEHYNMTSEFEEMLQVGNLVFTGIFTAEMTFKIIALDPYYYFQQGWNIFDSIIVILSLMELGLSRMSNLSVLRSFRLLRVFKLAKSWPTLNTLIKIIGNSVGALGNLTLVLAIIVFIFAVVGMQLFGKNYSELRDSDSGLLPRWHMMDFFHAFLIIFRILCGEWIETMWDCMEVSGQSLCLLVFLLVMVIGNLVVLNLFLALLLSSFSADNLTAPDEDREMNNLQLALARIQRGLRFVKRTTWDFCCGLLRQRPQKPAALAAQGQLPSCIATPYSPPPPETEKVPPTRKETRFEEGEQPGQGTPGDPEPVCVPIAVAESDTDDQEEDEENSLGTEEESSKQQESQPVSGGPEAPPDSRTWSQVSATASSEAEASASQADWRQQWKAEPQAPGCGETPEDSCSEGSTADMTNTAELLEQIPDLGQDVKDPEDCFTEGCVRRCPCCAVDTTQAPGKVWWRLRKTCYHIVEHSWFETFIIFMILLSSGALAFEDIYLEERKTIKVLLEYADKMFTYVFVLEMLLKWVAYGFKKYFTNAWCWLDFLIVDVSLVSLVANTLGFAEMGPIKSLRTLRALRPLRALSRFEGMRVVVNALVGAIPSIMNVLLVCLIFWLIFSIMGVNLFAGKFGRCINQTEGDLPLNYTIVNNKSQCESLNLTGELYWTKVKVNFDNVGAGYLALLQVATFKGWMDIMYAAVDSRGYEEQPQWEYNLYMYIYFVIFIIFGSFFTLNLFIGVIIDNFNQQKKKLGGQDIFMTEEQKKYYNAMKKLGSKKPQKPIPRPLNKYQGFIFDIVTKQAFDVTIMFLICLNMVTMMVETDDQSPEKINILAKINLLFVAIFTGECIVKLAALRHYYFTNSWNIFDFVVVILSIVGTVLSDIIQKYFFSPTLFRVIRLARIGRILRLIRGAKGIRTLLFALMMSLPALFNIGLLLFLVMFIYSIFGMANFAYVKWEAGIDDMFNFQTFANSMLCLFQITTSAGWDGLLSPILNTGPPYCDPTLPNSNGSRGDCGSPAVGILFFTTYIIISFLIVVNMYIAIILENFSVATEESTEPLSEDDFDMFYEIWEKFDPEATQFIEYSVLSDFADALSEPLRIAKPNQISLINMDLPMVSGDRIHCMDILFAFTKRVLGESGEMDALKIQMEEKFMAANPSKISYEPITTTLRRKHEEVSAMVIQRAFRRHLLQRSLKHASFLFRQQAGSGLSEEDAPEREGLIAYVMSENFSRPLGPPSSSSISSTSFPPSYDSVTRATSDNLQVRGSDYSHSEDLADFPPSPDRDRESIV
NaV1.5, sequence (Q07699 19-218 partner): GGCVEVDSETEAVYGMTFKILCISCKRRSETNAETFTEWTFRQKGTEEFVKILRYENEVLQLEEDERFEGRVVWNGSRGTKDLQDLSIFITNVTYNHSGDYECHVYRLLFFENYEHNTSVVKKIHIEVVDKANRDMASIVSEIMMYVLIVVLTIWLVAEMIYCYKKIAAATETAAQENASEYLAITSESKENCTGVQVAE

`O=S(=O)([O-])Oc1c(-c2sc3c(ccc4cccc(Cl)c43)c2OS(=O)(=O)[O-])[nH]c2ccc(Br)cc12.[Na+].[Na+]` [CP1, DISODIUM 5-BROMO-2-[9-CHLORO-3-(SULFONATOOXY) NAPHTHO [1,2-B] THIEN-2-YL]-1H-INDOL-3-YL SULFATE] was tested, and the “G/Gmax Mean (Fig. 6d)” value ([1]; voltage -140 mV) was 0.0026, the “G/Gmax Mean (Fig. 6d)” value ([1]; voltage -160 mV) was 0.0055 and the “shift of F–V relationship (VSD activation)” value ([2]; 10 µM CP1) was −17.3 ± 3.6 mV. For the same compound, the “shift of G–V relation” value ([2]; 10 µM CP1) was −53.3 ± 3.1 mV, the “G/Gmax Mean” value ([2]; 10 µM CP1, 0 mV) was 0.7707 and the “G/Gmax Mean” value ([2]; 10 µM CP1, 10 mV) was 0.7200. The “G/Gmax Mean” value ([2]; 10 µM CP1, 20 mV) was 0.6664, the “G/Gmax Mean” value ([2]; 10 µM CP1, 40 mV) was 0.5879 and the “G/Gmax Mean” value ([2]; 10 µM CP1, -10 mV) was 0.8231. The “G/Gmax Mean” value ([2]; 10 µM CP1, -20 mV) was 0.8668, the “G/Gmax Mean” value ([2]; 10 µM CP1, -30 mV) was 0.9194 and the “G/Gmax Mean” value ([2]; 10 µM CP1, -40 mV) was 0.9570. For the same compound, the “G/Gmax Mean” value ([2]; 10 µM CP1, -50 mV) was 0.9837, the “G/Gmax Mean” value ([2]; 10 µM CP1, -60 mV) was 1.0000 and the “G/Gmax Mean” value ([2]; 10 µM CP1, -70 mV) was 0.9888. For the same compound, the “G/Gmax Mean” value ([2]; 10 µM CP1, -80 mV) was 0.9295, the “G/Gmax Mean” value ([2]; 10 µM CP1, -90 mV) was 0.8170 and the “G/Gmax Mean” value ([2]; 10 µM CP1, -100 mV) was 0.6596. The “G/Gmax Mean” value ([2]; 10 µM CP1, -110 mV) was 0.4846, the “G/Gmax Mean” value ([2]; 10 µM CP1, -120 mV) was 0.3240 and the “G/Gmax Mean” value ([2]; 10 µM CP1, -130 mV) was 0.2412. For the same compound, the “G/Gmax Mean” value ([2]; 10 µM CP1, -140 mV) was 0.1631, the “F/Fmax Mean” value ([2]; 10 µM CP1, 0 mV) was 0.9059 and the “F/Fmax Mean” value ([2]; 10 µM CP1, 10 mV) was 0.9298. For the same compound, the “F/Fmax Mean” value ([2]; 10 µM CP1, 20 mV) was 0.9639, the “F/Fmax Mean” value ([2]; 10 µM CP1, 30 mV) was 0.9526 and the “F/Fmax Mean” value ([2]; 10 µM CP1, 40 mV) was 1.0000. The “F/Fmax Mean” value ([2]; 10 µM CP1, -10 mV) was 0.8465, the “F/Fmax Mean” value ([2]; 10 µM CP1, -20 mV) was 0.8444 and the “F/Fmax Mean” value ([2]; 10 µM CP1, -30 mV) was 0.7943. The “F/Fmax Mean” value ([2]; 10 µM CP1, -40 mV) was 0.7337, the “F/Fmax Mean” value ([2]; 10 µM CP1, -50 mV) was 0.6357 and the “F/Fmax Mean” value ([2]; 10 µM CP1, -60 mV) was 0.5712. For the same compound, the “F/Fmax Mean” value ([2]; 10 µM CP1, -70 mV) was 0.4588, the “F/Fmax Mean” value ([2]; 10 µM CP1, -80 mV) was 0.4066 and the “F/Fmax Mean” value ([2]; 10 µM CP1, -90 mV) was 0.2751. For the same compound, the “F/Fmax Mean” value ([2]; 10 µM CP1, -100 mV) was 0.1745, the “F/Fmax Mean” value ([2]; 10 µM CP1, -110 mV) was 0.1186 and the “F/Fmax Mean” value ([2]; 10 µM CP1, -120 mV) was 0.0457. The “F/Fmax Mean” value ([2]; 10 µM CP1, -130 mV) was 0.0520 and the “F/Fmax Mean” value ([2]; 10 µM CP1, -140 mV) was 0.0265.

— publication PMC7367283, “A PIP2 substitute mediates voltage sensor-pore coupling in KCNQ activation” (Communications Biology, 2020)
